≈ marks a conversion by molar mass, not a printed value. Like-named read-outs stand apart in the source and are kept apart here.
Assays:
Phytophthora infestans [1] = type: in vivo, Phytophthora infestans (on tomato plants cv Prof. Rudloff); conditions: soil drench 2 days before infection, tomato
Water solubility = type: physicochemical
Phytophthora infestans [2] = conditions: sunlight excluded; only the Z-isomer; reported in Brighton Crop Protection Conference, 1988, 17-24; cited from earlier work
tomato plants = conditions: in vivo
[3] = 6.25 ppm active ingredient (0.11 kg/ha)
[4] = 12.5 ppm active ingredient (0.2 kg/ha)
[5] = 25 ppm active ingredient (0.44 kg/ha)
[6] = 50 ppm active ingredient (0.88 kg/ha)
[7] = 100 ppm active ingredient (1.76 kg/ha)

Row | SMILES | Activity in % (ABBOTT formula, diseased leaf area) (Phytophthora infestans [1]; [3]) [%] | Activity in % (ABBOTT formula, diseased leaf area) (Phytophthora infestans [1]; [4]) [%] | Activity in % (ABBOTT formula, diseased leaf area) (Phytophthora infestans [1]; [5]) [%] | Activity in % (ABBOTT formula, diseased leaf area) (Phytophthora infestans [1]; [6]) [%] | Activity in % (ABBOTT formula, diseased leaf area) (Phytophthora infestans [1]; [7]) [%] | solubility (Water solubility) [µg/mL] | fungitoxicity in vitro (Phytophthora infestans [2]) | initial concentrations in the leaves, Z-isomer relative to E-isomer (tomato plants)
1 | COc1ccc(/C(=C\C(=O)N2CCOCC2)c2ccc(Cl)cc2)cc1OC [Z-isomer, Z-isomer of 4-[3-(4-chlorophenyl)-3-(3,4-dimethoxyphenyl)acryloyl]morpholine] | 100 | 100 | 100 | 100 | 100 | 7 (≈ 18 µM) | fungitoxic | about 5 times higher
2 | COc1ccc(/C(=C/C(=O)N2CCOCC2)c2ccc(Cl)cc2)cc1OC [E-isomer] | 16 | 47 | 71 | 94 | 97 | 30 (≈ 77.3 µM) |  | 
3 | COc1ccc(C(=CC(=O)N2CCOCC2)c2ccc(Cl)cc2)cc1OC [E/Z 50:50, 4-[3-(4-chlorophenyl)-3-(3,4-dimethoxyphenyl)-acryloyl]morpholine] | 91 | 98 | 100 | 100 | 100 |  |  | 
